In patent US20160082109A1, “COPOLYMER AND NANOPARTICLES OBTAINED THEREFROM FOR DRUG DELIVERY” (FONDAZIONE ISTITUTO ITALIANO DI TECNOLOGIA, priority 2013, published 2016):

Legend:
bEND.3 cells = test: Confocal microscopy of nanoparticle internalization and RhB delivery; format: cell-based, mice; details: 6 h; nanoparticles 10 μg/ml, free RhB 113 ng/ml
Experimental: Immortalized endothelial cells of mice, bEND.3 (American Type Culture Collection, Manassas, Va., USA) were cultivated in a DMEM medium with high levels of glucose in the presence of 10% of FBS, L-glutamine 2 mM, 1000 U/ml penicillin and 1 mg/ml of streptomycin. The cells split from 2 to 20 times were kept in a humidified incubator for cell cultures at 37° C. and 5%, CO2. This cell line was chosen because it is a suitable model for providing an endothelial barrier. […] The free rhodamine (113 ng/ml, the same quantity of rhodamine administered with the nanoparticles), was used as negative control for the absorption test for nanoparticles loaded with rhodamine B. […] Lysotracker-red-[…] 50 nM was added to mark the lysosomes and verify the intracellular localization of the nanoparticles. To understand the release potential by the nanoparticles, the internalization of nanoparticles loaded with RhB by bEND.3 cells was compared with the detection of fluorescent RhB not loaded on nanoparticles (FIGS. 15a and 15b respectively).

[1] = format: physicochemical
Experimental: The tests were conducted on 2±0.3 mg of polymer, placed in polypropyplene vials filled with 1 ml of deionized H2O and kept in a thermostatic bath at 37° C. for 33 days. At regular intervals the samples were withdrawn, the degradation medium was separated for evaluation of the pH while the degraded polymers were dried in a ventilated stove at 50° C. for 3 h and then analysed by gel permeation chromatography (GPC).
The pH measurements were conducted on the degradation means (deionized H2O) after pre-set times. In particular, the degradation means were withdrawn from the vials containing the polymer, prepared as reported in example 1, during the degradation tests in the previous example and the measurement was performed using a pH-meter on the samples just taken at a temperature of 37° C.

Row | Compound | RhB internalization in cells (bEND.3 cells) | pH of the degradation means (lower values / end of the test) [1]
1 | CCN(CC)c1ccc2c(-c3ccccc3C(=O)O)c3ccc(=[N+](CC)CC)cc-3oc2c1.[Cl-] [Free RhB, rhodamine B] | not observed | –
2 | polycaprolactone [PCL] | – | comparable
